{"source": "patent US8735437B2", "about": "“Imidazolidine carboxamide derivatives as lipase and phospholipase inhibitors” (Sanofi, priority 2007, dated 2014)", "data": [{"molecular_target": "T1, endothelial lipase (EL) (Homo sapiens, UniProt Q9Y5X9)", "T1 construct": "made in house; host or cells: recombinant cell lines (CHO, HEK293); concentrated conditioned medium used as enzyme solution", "T1 sequence (Q9Y5X9 21-500)": "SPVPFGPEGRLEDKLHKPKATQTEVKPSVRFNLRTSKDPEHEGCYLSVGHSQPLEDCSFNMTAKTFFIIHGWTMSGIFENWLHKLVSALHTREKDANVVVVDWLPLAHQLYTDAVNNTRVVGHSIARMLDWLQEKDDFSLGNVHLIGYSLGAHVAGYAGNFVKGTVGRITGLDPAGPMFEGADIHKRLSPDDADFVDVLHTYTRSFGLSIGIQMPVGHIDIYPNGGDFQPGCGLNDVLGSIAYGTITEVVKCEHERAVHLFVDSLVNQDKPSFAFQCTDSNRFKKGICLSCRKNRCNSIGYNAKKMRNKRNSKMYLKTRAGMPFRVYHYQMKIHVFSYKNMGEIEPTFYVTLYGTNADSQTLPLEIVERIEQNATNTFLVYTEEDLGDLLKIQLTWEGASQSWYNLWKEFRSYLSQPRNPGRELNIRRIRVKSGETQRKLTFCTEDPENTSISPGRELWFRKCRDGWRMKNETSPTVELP", "assay": "EL inhibition assay (EL activity assay, fluorescent Bodipy-labelled phospholipid substrate)", "type": "biochemical", "details": "enzyme solution = conditioned medium of recombinant cell lines (CHO, HEK293); 37° C., 90 minutes; pH=7.4", "description": "EL is released as secretory protein in high concentration into cell culture medium (conditioned medium) by recombinant cell lines (CHO, HEK293). This is employed as enzyme solution after concentration.\nThe phospholipase-specific substrate 1,2-bis(4,4-difluoro-5,7-dimethyl-4-bora-3a,4a-diaza-s-indacene-3-undecanoyl)-sn-glycero-3-phosphocholine, (manufacturer Molecular Probes) is used to characterize the enzymatic activity of endothelial lipase and the effect of inhibitors. Hydrolysis of the A1 ester linkage of this phospholipid by the enzyme liberates a fatty acid labeled with the fluorescent dye Bodipy which can be detected after separation by thin-layer chromatography on an HPTLC plate (silica gel 60, Merck) or directly in the reaction vessel by measuring the fluorescence. The substrate solution is prepared by dissolving 100 μg of 1,2-bis(4,4-difluoro-5,7-dimethyl-4-bora-3a,4a-diaza-s-indacene-3-undecanoyl)-sn-glycero-3-phospho-choline (manufacturer Molecular Probes) in 100 μl of DMSO and taking it up in 2.4 mg of tripalmitin (Sigma) in 393 μl of chloroform which contains 20 mg/ml of DOP-choline (1,2-dioleoyl-sn-glycero-3-phosphocholine). 39.3 μl of this lipid mixture are transferred into a fresh reaction vessel. After evaporation of the solvent, the lipid mixture is dissolved in 4 ml of 200 mM TRIS-HCl, 150 mM sodium chloride, pH=7.4, by sonication twice. The subsequent enzymic reaction takes place at 37° C. for 90 minutes. For this purpose, 20 μl of the substrate solution are incubated with 2 μl of inhibitor of appropriate concentration (dissolved in 10% DMSO, 10% strength DMSO solution is used as control) and 2 μl of enzyme solution (conditioned medium). Then 4 μl of the assay mixture are loaded onto an HPTLC plate (silica gel 60, Merck), and the liberated fluorescent dye is separated for detection with an eluent (diethyl ether:petroleum benzine:acetic acid [78:22:1]). After evaporation of the eluent, the plate is read in a fluorescence scanner. An increased release of the fluorescent dye in the uninhibited reaction is to be observed as a measure of the enzymic activity.\nThe enzymatic activity is reduced as a function of the inhibitor concentration used, and the inhibitor concentration at which a half-maximum enzymic activity is observed is called IC50.", "units": {"IC50": "µM"}, "values": [{"molecule": "CCCCCCCNC(=O)N1C(=O)CN(CCCC)C1=O", "note": "[Example 21, 3-Butyl-2,5-dioxoimidazolidine-1-heptylcarboxamide]", "IC50": 0.059}, {"molecule": "Cc1ccccc1CNC(=O)N1C(=O)CN(Cc2ccccc2)C1=O", "note": "[Example 2, 3-Benzyl-2,5-dioxoimidazolidine-1-(2-methylbenzyl)carboxamide]", "IC50": 0.147}, {"molecule": "O=C1CN(Cc2ccccc2)C(=O)N1C(=O)NC1CCCc2ccccc21", "note": "(centres unmarked) [Example 5, 3-Benzyl-2,5-dioxoimidazolidine-1-(1,2,3,4-tetrahydronaphthalen-1-yl)carboxamide]", "IC50": 0.008}, {"molecule": "Cc1ccccc1CNC(=O)N1C(=O)C2Cc3ccccc3CN2C1=O", "note": "(centres unmarked) [Example 29, 1,3-Dioxo-1,5,10,10a-tetrahydroimidazo[1,5-b]isoquinoline-2-methylbenzyl-2-carboxamide]", "IC50": 0.143}, {"molecule": "CCCCCCCNC(=O)N1C(=O)CN(Cc2ccccc2)C1=O", "note": "[Example 7, 3-Benzyl-2,5-dioxoimidazolidine-1-heptylcarboxamide]", "IC50": 0.083}, {"molecule": "O=C1CN(Cc2ccccc2)C(=O)N1C(=O)N[C@@H]1CCc2ccccc21", "note": "[Example 4, 3-Benzyl-2,5-dioxoimidazolidine-1-((R)-indan-1-yl)carboxamide]", "IC50": 0.0005}, {"molecule": "O=C1CN(Cc2ccccc2)C(=O)N1C(=O)N[C@H]1CCc2ccccc21", "note": "[Example 3, 3-Benzyl-2,5-dioxoimidazolidine-1-((S)-indan-1-yl)carboxamide]", "IC50": 0.145}, {"molecule": "CCCCCCNC(=O)N1C(=O)N(C)C(C)(C)C1=O", "note": "[Example 9, 3,4,4-Trimethyl-2,5-dioxoimidazolidine-1-hexylcarboxamide]", "IC50": 0.037}, {"molecule": "CCCCCCNC(=O)N1C(=O)C2CCCCN2C1=O", "note": "(centres unmarked) [Example 23, 1,3-Dioxohexahydroimidazo[1,5-a]pyridine-2-hexylcarboxamide]", "IC50": 0.044}, {"molecule": "CCCCCCNC(=O)N1C(=O)CN(C)C1=O", "note": "[Example 8, 3-Methyl-2,5-dioxoimidazolidine-1-hexyl carboxamide]", "IC50": 0.047}, {"molecule": "O=C(NC1CCCc2ccccc21)N1C(=O)C2Cc3ccccc3CN2C1=O", "note": "(centres unmarked) [Example 28, 1,3-Dioxo-1,5,10,10a-tetrahydroimidazo[1,5-b]isoquinoline-2-(1,2,3,4-tetra-hydronaphthalen-1-yl)carboxamide]", "IC50": 0.059}, {"molecule": "CCCCCCNC(=O)N1C(=O)CN(Cc2ccccc2)C1=O", "note": "[Example 1, 3-Benzyl-2,5-dioxoimidazolidine-1-hexylcarboxamide]", "IC50": 0.005}, {"molecule": "CCCCCCNC(=O)N1C(=O)C2Cc3ccccc3CN2C1=O", "note": "(centres unmarked) [Example 24, 1,3-Dioxo-1,5,10,10a-tetrahydroimidazo[1,5-b]isoquinoline-2-hexylcarboxamide]", "IC50": 0.039}, {"molecule": "O=C1CN(Cc2ccccc2)C(=O)N1C(=O)NCCc1cccs1", "note": "[Example 6, 3-Benzyl-2,5-dioxoimidazolidine-1-(2-thiophen-2-ylethyl)carboxamide]", "IC50": 0.143}]}]}
